From patent US7332495B2 (priority 2002, dated 2008)

Assays:
Kunming mice = experiment: Sedation: spontaneous activities recorded with alternating current tube; format: in vivo
Method: Kunming mice were used, with a male-female ratio of 50-50%. […] After 30 minutes, acetic acid (0.7%, […] i.p.) was injected and the number of writhes was observed during a 5-minute period after acetic acid administration. The inhibition ratio of the writhing threshold was calculated. The alternating current tube is used to record the spontaneous activities for measuring sedation.

rat [1] = experiment: Rat tail flick model (focused radiant heat); format: in vivo
Method: A 8.75 mm-projecting lamp (12 v, 50 w) was used to give out focused radiant heat. The terminal 3 cm of the tail is exposed to the heat. The intensity of the focused radiant heat is regulated by a transformer to ensure that the time required to elicit a tail flick response is within 3-5 seconds. The rat's pain threshold is pre-tested for 2-3 times; and only animals with stable reactions were used in the pharmaceutical test. The test substance is taken orally 20 mg/kg. The number of rats whose increase in time for eliciting a tail flick response is by 100% or more at the peak of the drug action (30-45 minutes after administration) is used to calculate analgesic effect.
Two species of animals (mice and rats) and four types of pain testing models (i.p. 0.7% acetic acid, s.c. 5% formalin, hot plate 55° C., focused radiant heat) were used.

NMDA receptor [2] = experiment: Electrophysiology of hippocampus's pyramidal cell: NMDA-induced current; format: cell-based; settings: 100 μM NMDA; read-out: IC50 of suppression of current induced by NMDA
NMDA receptor [3] = experiment: Binding test with NMDA receptor; settings: 0.1 μM, 1 μM and 10 μM
Mice [4] = experiment: Swelling caused by p-dimethylbenzene in mice; format: in vivo; settings: p.o. 15 or 30 mg/kg
Mice [5] = experiment: Spontaneous activities of mice after oral IV-12; format: in vivo; settings: p.o. 15 or 30 mg/kg
rats = experiment: Spontaneous withdrawal tests (body weight); format: in vivo
Method: 96 mice were divided into 4 groups (24 for each group, ? fifty-fifty), and Morphine, IV-12-1, IV-12-2, warm boiled water were administered respectively, using progressive dose increase for 7 days (i.g.) and 2 times per day. The weight of the rats after drug withdrawal was compared with the weight one day before drug withdrawal at a corresponding time (See Table 9 and 10).

Acute toxicity in rats = settings: rat, in vivo, po, Bliss method
[6] = system: S. typhimurium TA97, TA98, TA100 and TA102; experiment: Bacterial reverse-mutation assay (Ames); format: cell-based; settings: for Effect on bacterial growth: 5000 μg/plate
Description: Strains: S. typhimurium TA97, TA98, TA100 and TA102
Results: The assay included two parts without S9 and with S9. […] For all tested doses, there was no significant increase of revertants. Ames test for of IV-12 is negative.

rat [7] = experiment: Rat tail flick model (focused radiant heat); format: in vivo; settings: po, read-out: Analgesia ED50

Q: With Nc1ccc(CN2CCN(CC(=O)c3ccccc3)CC2)cc1 [IV-12, N^1-(4-aminobenzyl)-N^4-phenacyl piperazine] as the compound, how does the “Sedation (writhing model)” value (Kunming mice; 20 mg/kg, Table 5 summary) read?
A: 97

Q: What about the inhibition in vivo at 20 mg/kg (Kunming mice; Mus musculus, ip, i.p. 20 mg/Kg, spontaneous activities) of the same compound?
A: 97%

Q: And the “Increase (tail flick) (%)” value (rat [1]; 20 mg/kg, Table 5 summary)?
A: 34%

Q: And the change in vivo at 20 mg/kg (rat [1]; Rattus norvegicus, po, orally 20 mg/kg, read-out: increase (%) of tail flick time)?
A: 34%

Q: And the “After (s) tail flick time” value (rat [1]; orally 20 mg/kg, 30-45 minutes after administration)?
A: 10.05 s

Q: And the IC50 (NMDA receptor [2])?
A: 1110 ± 1000 nM

Q: What about the “Antagonism on Glu site of NMDA receptor” value (NMDA receptor [3]) of the same compound?
A: no antagonism

Q: What about the “Antagonism on Gly site of NMDA receptor” value (NMDA receptor [3]) of the same compound?
A: no antagonism

Q: What about the “Antagonism on ion-channel site of NMDA receptor” value (NMDA receptor [3]) of the same compound?
A: no antagonism

Q: And the “Antagonism for swelling caused by p-dimethylbenzene” value (Mice [4])?
A: no antagonism

Q: And the “Behaviour / spontaneous activities” value (Mice [5])?
A: quiet and suppressed from spontaneous activities

Q: What about the “Weight after withdrawal compared with weight one day before withdrawal” value (rats; IV-12-1 75 mg/kg, 138 h after withdrawal) of the same compound?
A: 1.08 ± 0.06

Q: What about the “Increase (%) of weight” value (rats; IV-12-1 (75 mg/kg), 18 h after withdrawal) of the same compound?
A: 3.9%

Q: And the “Increase (%) of weight” value (rats; IV-12-1 (75 mg/kg), 36 h after withdrawal)?
A: 5.3%

Q: What about the “Weight” value (rats; IV-12-1 (75 mg/kg), 60 h after withdrawal) of the same compound?
A: 258.5 ± 38 g

Q: And the “Weight” value (rats; IV-12-1 (75 mg/kg), 72 h after withdrawal)?
A: 251.6 ± 36 g

Q: And the “Weight after withdrawal compared with weight one day before withdrawal” value (rats; IV-12-2 100 mg/kg, 18 h after withdrawal)?
A: 1.01 ± 0.04

Q: And the “Increase (%) of weight” value (rats; IV-12-2 (75 mg/kg), 60 h after withdrawal)?
A: 1.9%

Q: And the “Weight” value (rats; IV-12-2 (75 mg/kg), 114 h after withdrawal)?
A: 260.1 ± 30 g

Q: What about the “Increase (%) of weight” value (rats; IV-12-2 (75 mg/kg), 132 h after withdrawal) of the same compound?
A: 7.0%

Q: And the “Weight after drug withdrawal (in words)” value (rats; groups IV-12-1 and IV-12-2)?
A: did not decrease

Q: What about the LD50 (Acute toxicity in rats) of the same compound?
A: 414 mg/kg

Q: And the “Effect on bacterial growth” value ([6]; with S9, TA97)?
A: inhibitory effect

Q: And the “Effect on bacterial growth” value ([6]; without S9, TA98)?
A: inhibitory effect

Q: What about the Ames test ([6]; without S9 and with S9, TA97, TA98, TA100, TA102) of the same compound?
A: negative

Q: What about the ED50 (rat [7]) of the same compound?
A: 162 mg/kg
